Results as given in article PMC12591484 (PLOS One, 2025).
Like-named read-outs stand apart in the source and are kept apart here.

Tests used:
[1] = target: T1, α1β3γ2I242C GABAA receptors (Homo sapiens, UniProt P14867+P18507+P28472, I281C); assay: Drug protection from pCMBS modification (SCAMP); assay type: cell-based; parameters: key to SCAMP result, γ2– (M1) I242: +: Mutant-function studies are deemed positive when bulky mutations (mostly tryptophans) at the site significantly reduce positive modulation by anesthetics; -: Negative results are indicated by “–“ symbols; details: for SCAMP result, γ2– (M1) I242: results of this study, etomidate cell also cites [9]
T1 construct: expressed in transfected cells; host or cells: Xenopus oocytes injected with capped mRNAs mixed 1α:1β:5γ
Description: (§1) Experiments were performed in ND-96 buffer at room temperature (20–22°C). Oocytes were placed in a low-volume (30µl) flow chamber and impaled with borosilicate microelectrodes filled with 3M KCl (resistance 0.5–3 MΩ) and voltage-clamped at −50 mV (model OC-725C; Warner Instruments, Hamden, CT, USA). Superfusate solutions in ND-96 were delivered at 2 ml/min from glass syringe reservoirs via computer-controlled valves (VC-8; Warner Instruments), a micro-manifold (ALA-VM8; ALA Scientific Instruments, Farmingdale, NY, USA), and PTFE tubing. Currents were digitized at 200 Hz on a computer running ClampEx v8.0 software (Molecular Devices, San Jose, CA, USA). Digitized traces were filtered with a 10-Hz low-pass Bessel function, leak corrected and analyzed for peak amplitude off-line using Clampfit v8 software (Molecular Devices).
(§2) Drug protection from pCMBS modification was assessed under pCMBS exposure conditions that produced approximately half of the maximal modification ratio for each mutant receptor, and a least a value of 3. This approach balanced the magnitude of functional modification signals (smaller with less pCMBS exposure) against the challenge of using a reversibly bound ligand to competitively block an irreversible covalent cysteine-modifying reaction. […] Each oocyte was used in a single SCAMP experiment. […] Etomidate was used as a positive control for anesthetic protection in α1M236C and β3M286C mutants and as a negative control in α1S270C, α1A291C, β3L231C, γ2S301C, γ2I242C, and γ2L246C mutants. R-mTFD-MPAB was used as a positive control in α1S270C, α1A291C, β3L231C, and γ2LS301C mutants and as a negative control in α1M236C and β3M286C mutants. For each cysteine mutant and protective drug combination, five oocytes were studied.
Non-linear least squares fits and statistical analyses were performed in Prism 10.4.0. (GraphPad Software, San Diego, CA, USA). […] Protection (steric inhibition of pCMBS modification) was inferred when anesthetics produced significant reductions in modification ratios relative to control (no anesthetic) values. […]

[2] = target: T2, α1β3L231Cγ2L GABAA receptors (Homo sapiens, UniProt P14867+P18507+P28472, L256C); assay: Drug protection from pCMBS modification (SCAMP); assay type: cell-based; parameters: key: +: SCAMP is Substituted Cysteine Modification and Protection and is positive when adding anesthetic to cysteine modifier significantly reduces persistent post-exposure effects due to covalent modification; -: Negative results are indicated by “–“ symbols; details: results of this study (*); some cells also cite [9]
T2 construct: expressed in transfected cells; host or cells: Xenopus oocytes injected with capped mRNA, 1α:1β:5γ
Description: as §1, §2
(§3) Non-linear least squares fits and statistical analyses were performed in Prism 10.4.0. (GraphPad Software, San Diego, CA, USA). […] Protection (steric inhibition of pCMBS modification) was inferred when anesthetics produced significant reductions in modification ratios relative to control (no anesthetic) values. The statistical significance threshold was p < 0.05.

[3] = tested on: α1β3γ2L GABAA receptors, bulky mutation at γ2S301; parameters: method as in PMID 30696720; key: +: Mutant-function studies are deemed positive when bulky mutations (mostly tryptophans) at the site significantly reduce positive modulation by anesthetics; -: Negative results are indicated by “–“ symbols; details: cited from earlier work
[4] = target: T3, α1β3M286Cγ2L GABAA receptors (Homo sapiens, UniProt P14867+P18507+P28472, M311C); assay: Drug protection from pCMBS modification (SCAMP); assay type: cell-based; details: β3M286C (β+); pCMBS 1 µM x 30 s; […] etomidate, 8 µM R-mTFD-MPAB or 10 µM pTFD-di-iPr-BnOH; n = 5
T3 construct: expressed in transfected cells; host or cells: Xenopus oocytes injected with capped mRNA, 1α:1β:5γ
Description: as §1, §2, §3

[5] = tested on: α1β3γ2L GABAA receptors, bulky mutation at γ2L246; parameters: key: +: Mutant-function studies are deemed positive when bulky mutations (mostly tryptophans) at the site significantly reduce positive modulation by anesthetics; -: Negative results are indicated by “–“ symbols; details: cited from earlier work
[6] = tested on: α1β3γ2L GABAA receptors, bulky mutation at α1L232; parameters: key: +: Mutant-function studies are deemed positive when bulky mutations (mostly tryptophans) at the site significantly reduce positive modulation by anesthetics; -: Negative results are indicated by “–“ symbols; details: cited from earlier work
[7] = tested on: α1β3γ2L GABAA receptors, bulky mutation at α1A291; parameters: method as in PMID 30696720; key: +: Mutant-function studies are deemed positive when bulky mutations (mostly tryptophans) at the site significantly reduce positive modulation by anesthetics; -: Negative results are indicated by “–“ symbols; details: cited from earlier work
[8] = tested on: α1β3γ2L GABAA receptors, substituted cysteine at α1L232 (α1– M1); parameters: key: +: SCAMP is Substituted Cysteine Modification and Protection and is positive when adding anesthetic to cysteine modifier significantly reduces persistent post-exposure effects due to covalent modification; -: Negative results are indicated by “–“ symbols; details: previously reported; cited from earlier work
[9] = tested on: α1β3γ2L GABAA receptors, bulky mutation at β3L231; parameters: key: +: Mutant-function studies are deemed positive when bulky mutations (mostly tryptophans) at the site significantly reduce positive modulation by anesthetics; -: Negative results are indicated by “–“ symbols; details: cited from earlier work
[10] = target: T4, α1β3γ2L246C GABAA receptors (Homo sapiens, UniProt P14867+P18507+P28472, L285C); parameters: key: +: Mutant-function studies are deemed positive when bulky mutations (mostly tryptophans) at the site significantly reduce positive modulation by anesthetics; -: Negative results are indicated by “–“ symbols; details: previously reported; cited from earlier work
T4 construct: expressed in transfected cells; host or cells: Xenopus oocytes injected with capped mRNAs mixed 1α:1β:5γ

[11] = tested on: α1β3γ2L GABAA receptors, substituted cysteine at α1L232 (α1– M1); parameters: key: +: Mutant-function studies are deemed positive when bulky mutations (mostly tryptophans) at the site significantly reduce positive modulation by anesthetics; -: Negative results are indicated by “–“ symbols; details: previously reported; cited from earlier work

T1 sequence (P14867 28-456): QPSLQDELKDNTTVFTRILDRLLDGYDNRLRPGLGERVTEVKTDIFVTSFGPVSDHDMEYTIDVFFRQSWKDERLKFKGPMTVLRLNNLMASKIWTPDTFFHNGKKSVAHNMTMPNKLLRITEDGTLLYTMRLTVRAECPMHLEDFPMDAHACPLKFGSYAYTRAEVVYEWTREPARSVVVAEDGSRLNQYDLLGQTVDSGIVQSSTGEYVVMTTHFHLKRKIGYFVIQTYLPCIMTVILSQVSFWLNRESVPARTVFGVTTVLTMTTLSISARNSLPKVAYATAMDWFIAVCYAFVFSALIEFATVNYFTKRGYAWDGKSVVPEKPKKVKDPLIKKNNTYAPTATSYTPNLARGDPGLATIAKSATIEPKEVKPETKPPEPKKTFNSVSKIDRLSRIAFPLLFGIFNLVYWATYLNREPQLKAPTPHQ
T1 sequence (P28472 26-473): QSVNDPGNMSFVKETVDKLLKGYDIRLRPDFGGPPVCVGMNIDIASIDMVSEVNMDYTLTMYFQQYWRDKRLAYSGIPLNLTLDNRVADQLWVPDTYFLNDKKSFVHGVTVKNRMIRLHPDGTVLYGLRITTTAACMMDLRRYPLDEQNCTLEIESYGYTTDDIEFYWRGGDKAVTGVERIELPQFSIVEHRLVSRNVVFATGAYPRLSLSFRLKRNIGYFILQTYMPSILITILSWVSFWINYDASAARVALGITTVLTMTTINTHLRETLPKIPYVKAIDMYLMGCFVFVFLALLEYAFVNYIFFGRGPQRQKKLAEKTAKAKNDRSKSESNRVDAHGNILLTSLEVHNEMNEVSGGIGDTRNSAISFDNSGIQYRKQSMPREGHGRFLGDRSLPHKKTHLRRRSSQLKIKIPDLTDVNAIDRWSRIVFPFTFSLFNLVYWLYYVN
T1 sequence (P18507 40-475 I281C): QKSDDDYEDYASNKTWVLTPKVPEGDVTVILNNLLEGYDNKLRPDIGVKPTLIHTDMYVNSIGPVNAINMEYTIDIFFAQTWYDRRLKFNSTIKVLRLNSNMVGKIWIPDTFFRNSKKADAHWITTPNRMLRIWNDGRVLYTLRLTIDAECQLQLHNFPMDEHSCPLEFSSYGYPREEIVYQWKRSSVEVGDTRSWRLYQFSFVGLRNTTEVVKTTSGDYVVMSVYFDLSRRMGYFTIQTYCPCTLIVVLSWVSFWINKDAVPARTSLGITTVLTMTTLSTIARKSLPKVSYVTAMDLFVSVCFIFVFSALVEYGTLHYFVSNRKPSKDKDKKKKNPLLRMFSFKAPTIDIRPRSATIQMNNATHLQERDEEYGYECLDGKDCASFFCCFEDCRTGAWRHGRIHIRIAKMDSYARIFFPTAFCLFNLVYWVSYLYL
T2 sequence (P14867 28-456): as the sequence (P14867 28-456) above
T2 sequence (P28472 26-473 L256C): as the sequence (P28472 26-473) above, with L231C counted along it
T2 sequence (P18507 40-475): as the sequence (P18507 40-475 I281C) above, with C242I counted along it
T3 sequence (P14867 28-456): as the sequence (P14867 28-456) above
T3 sequence (P28472 26-473 M311C): as the sequence (P28472 26-473) above, with M286C counted along it
T3 sequence (P18507 40-475): as the sequence (P18507 40-475 I281C) above, with C242I counted along it
T4 sequence (P14867 28-456, stated change not applied): as the sequence (P14867 28-456) above
T4 sequence (P28472 26-473): as the sequence (P28472 26-473) above
T4 sequence (P18507 40-475 L285C): as the sequence (P18507 40-475 I281C) above, with C242I, L246C counted along it

| Compound | SCAMP result, γ2– (M1) I242 [1] | SCAMP result, β3– (M1) L231 [2] | Mutant-function result, γ2+ (M2, M3) S301 [3] | protection from pCMBS modification (significant reduction of modification ratio vs control, p < 0.05) [4] | protection from pCMBS modification (significant reduction of modification ratio vs control, p < 0.05) ([1]; γ2I242C (γ–), pCMBS 100 µM x 30 s, […] etomidate or 10 µM pTFD-di-iPr-BnOH, n = 5) | Mutant-function result, γ2– (M1) L246 [5] | Mutant-function result, α1– (M1) L232 [6] | Mutant-function result, α1+ (M2, M3) A291 [7] | SCAMP result, α1– (M1) L232 [8] | Mutant-function result, β3– (M1) L231 [9] | SCAMP result, γ2– (M1) L246 [10] | SCAMP result, α1– (M1) L232 [11] |
| --- | --- | --- | --- | --- | --- | --- | --- | --- | --- | --- | --- | --- |
| CC(C)c1cc(C2(C(F)(F)F)N=N2)cc(C(C)C)c1CO [pTFD-di-iPr-BnOH] | -* | +* | – | – | – | – | – | – | – | – | – | – |
| CCOC(=O)c1cncn1[C@H](C)c1ccccc1 [etomidate, R-etomidate] | -^[9],6 | – | -^[13] | protection was inferred | no protection was inferred | -^[9] | +^[9, 12] | -^[13] | +^[9] | +^[9] | – | – |
| C=CCC1(c2cccc(C3(C(F)(F)F)N=N3)c2)C(=O)NC(=O)N(C)C1=O (stereo not shown) [R-mTFD-MPAB, R-5-allyl-1-methyl-5-(m-trifluoromethyl-diazirynylphenyl) barbituric acid] | – | +^[9], * | +^[13] | – | – | -^[9] | -^[9] | +^[13] | – | -^[9] | -^[9] | -^[9] |
